Consider five compounds from PMC4187893, “Biochemical and Antiparasitic Properties of Inhibitors of the Plasmodium falciparum Calcium-Dependent Protein Kinase PfCDPK1” (Antimicrobial Agents and Chemotherapy, 2014).

A word on the pIC50: it is the IC50 on a negative log10 scale, so that one unit is a factor of ten. One may read the pEC50 as the negative decadic logarithm of the EC50, by convention in mol/L.

The target of one data set is PvCDPK1 (Plasmodium vivax, UniProt A5KBU9). Briefly: Rh-ParM ADP sensor IC50 assay, PvCDPK1. Particulars: read-out: IC50 PvCDPK1; Rh-ParM, absence of MTIP; mean (SD), n = 3.
On the set-up of data set [1]: method as in PMID 24689770. To be noted: cited from earlier work.
A further data set concerns P. falciparum 3D7. Briefly: FACS assay for parasite growth. To be noted: read-out: Parasite growth inhibition EC50; FACS; mean (SD), n = 3. On the technique in general: A flow cytometer gives signals particle by particle.
The test system of another data set is P. berghei. More on the design: method as in PMID 24689770. To be noted: mice, 50 mg/kg po, groups of three mice; mean (SD); cited from earlier work.
The conditions of data set [2]: P. berghei mouse model; cited from earlier work.
Another data set has as its target PfCDPK1 (Plasmodium falciparum, UniProt P62344). Briefly: Thermal shift assay. Type of data set: binding. More on the design: 50 nM full-length recombinant PfCDPK1 and 8 μM MTIP in assay buffer 1; GST (from vector pGEX6P1) (N, cleaved yes); made in house; host or cells: Escherichia coli BL21 Gold. Particulars: 10 μM compound, relative to DMSO controls. As for the experimental part: Purified recombinant PfCDPK1 was diluted to 1 μM in 10 mM HEPES buffer (pH 7.5) containing 150 mM NaCl, 1 mM Ca^2+, and 1/1,000 SYPRO orange dye (Invitrogen). Test compounds were prediluted to 400 μM in 40% (vol/vol) DMSO in water, and 1 μl of diluted compound was added to 39 μl of enzyme/dye mix in white 96-well quantitative PCR plates (Thermo Scientific) to give a final compound concentration of 10 μM. Reference thermal melting temperatures (Tms) were obtained in parallel by the addition of 1 μl of 40% (vol/vol) DMSO to 39 μl of diluted PfCDPK1. The plates were sealed with transparent adhesive covers (Bio-Rad) and subjected to a temperature gradient from […] at a rate of 1 K/min using a quantitative PCR machine (MX3005P; Stratagene). Fluorescence data were acquired at 1-min intervals using the 6-carboxyfluorescein (FAM)/5-carboxy-X-rhodamine (ROX) filter set (λex = 492 nm; λem = 610 nm), and the raw data were exported to Excel (Microsoft) for analysis. Data were processed to identify the fluorescence maxima and minima, and the midpoints of melting curves were determined by fitting to the Boltzmann equation using XL-fit software (IDBS). Results were expressed as ΔTm values relative to DMSO controls where ΔTm = Tm in the presence of inhibitor − Tm of the DMSO controls.

In another data set the target is PbCDPK1 (Plasmodium berghei, UniProt A0A509AHB6). Briefly: Rh-ParM ADP sensor IC50 assay, PbCDPK1. To be noted: read-out: IC50 PbCDPK1; Rh-ParM, absence of MTIP; mean (SD), n = 3.
Details of data set [3]: method as in PMID 24689770. Particulars: cited from earlier work. This is another data set of the same source.
Another data set has as its target PfCDPK1 T145Q (Plasmodium falciparum, UniProt P62344, T145Q). The data set is described as follows: Rh-ParM ADP sensor assay, gatekeeper mutant T145Q. To be noted: Ki, absence of MTIP.

pEC50, pIC50: −log10 of the molar value. A value given as a limit tells only on which side of the number the result lay.

PvCDPK1, sequence (A5KBU9 entry or part of it): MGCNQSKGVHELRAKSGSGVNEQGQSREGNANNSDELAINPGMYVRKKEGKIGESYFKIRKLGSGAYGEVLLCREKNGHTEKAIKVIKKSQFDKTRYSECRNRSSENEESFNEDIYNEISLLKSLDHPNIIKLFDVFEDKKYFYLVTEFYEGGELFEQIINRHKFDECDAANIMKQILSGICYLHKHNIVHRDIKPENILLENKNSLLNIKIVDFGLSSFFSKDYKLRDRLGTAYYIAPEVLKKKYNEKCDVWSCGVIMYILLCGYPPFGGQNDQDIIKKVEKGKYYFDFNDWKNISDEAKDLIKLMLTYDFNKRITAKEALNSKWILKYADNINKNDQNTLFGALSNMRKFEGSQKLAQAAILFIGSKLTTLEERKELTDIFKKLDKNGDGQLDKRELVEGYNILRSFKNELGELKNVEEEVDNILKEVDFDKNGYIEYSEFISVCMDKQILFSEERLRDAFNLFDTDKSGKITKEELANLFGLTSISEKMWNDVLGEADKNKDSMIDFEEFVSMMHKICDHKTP
PfCDPK1, sequence (P62344 whole entry): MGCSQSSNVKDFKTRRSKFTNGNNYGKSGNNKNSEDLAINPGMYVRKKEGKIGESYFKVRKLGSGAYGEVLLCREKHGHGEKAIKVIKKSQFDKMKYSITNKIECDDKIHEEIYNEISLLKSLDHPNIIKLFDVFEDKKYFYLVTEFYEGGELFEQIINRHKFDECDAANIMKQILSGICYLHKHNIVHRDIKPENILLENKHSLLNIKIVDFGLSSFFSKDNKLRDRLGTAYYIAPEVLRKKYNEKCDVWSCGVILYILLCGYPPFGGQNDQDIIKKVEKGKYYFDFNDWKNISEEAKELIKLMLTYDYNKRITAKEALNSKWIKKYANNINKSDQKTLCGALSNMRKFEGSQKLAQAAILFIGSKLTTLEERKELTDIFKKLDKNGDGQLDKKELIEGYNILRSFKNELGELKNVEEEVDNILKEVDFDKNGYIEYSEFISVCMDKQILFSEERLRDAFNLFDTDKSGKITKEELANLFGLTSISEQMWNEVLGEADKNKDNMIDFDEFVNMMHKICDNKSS
PbCDPK1, sequence (A0A509AHB6 whole entry): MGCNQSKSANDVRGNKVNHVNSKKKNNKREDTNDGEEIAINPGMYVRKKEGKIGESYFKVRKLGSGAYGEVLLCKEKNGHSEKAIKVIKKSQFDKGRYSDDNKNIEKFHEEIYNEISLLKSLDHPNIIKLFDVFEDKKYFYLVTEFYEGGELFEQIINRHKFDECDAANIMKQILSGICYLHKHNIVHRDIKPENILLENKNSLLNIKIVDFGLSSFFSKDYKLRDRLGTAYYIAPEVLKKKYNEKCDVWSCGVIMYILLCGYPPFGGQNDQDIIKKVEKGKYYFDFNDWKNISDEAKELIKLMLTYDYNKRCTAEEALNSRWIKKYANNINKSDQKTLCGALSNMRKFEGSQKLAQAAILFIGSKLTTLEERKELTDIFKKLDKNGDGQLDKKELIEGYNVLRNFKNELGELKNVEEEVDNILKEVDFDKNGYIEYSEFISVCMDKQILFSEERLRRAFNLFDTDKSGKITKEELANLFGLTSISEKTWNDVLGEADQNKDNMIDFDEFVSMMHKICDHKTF
PfCDPK1 T145Q, sequence (P62344 whole entry T145Q): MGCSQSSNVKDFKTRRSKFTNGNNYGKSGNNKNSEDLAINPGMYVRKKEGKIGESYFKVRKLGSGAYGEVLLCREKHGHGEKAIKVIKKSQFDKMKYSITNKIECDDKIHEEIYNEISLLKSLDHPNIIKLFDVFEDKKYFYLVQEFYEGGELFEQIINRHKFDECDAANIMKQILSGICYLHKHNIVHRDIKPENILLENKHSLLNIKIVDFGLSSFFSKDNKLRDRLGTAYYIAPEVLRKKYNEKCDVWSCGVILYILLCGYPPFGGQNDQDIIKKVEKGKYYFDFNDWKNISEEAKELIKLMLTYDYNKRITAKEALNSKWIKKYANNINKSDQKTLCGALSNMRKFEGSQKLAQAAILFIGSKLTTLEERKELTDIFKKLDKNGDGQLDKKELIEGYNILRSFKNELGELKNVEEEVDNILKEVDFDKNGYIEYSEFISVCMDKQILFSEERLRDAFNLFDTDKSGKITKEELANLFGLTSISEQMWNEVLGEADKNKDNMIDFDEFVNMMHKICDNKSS

Consider `CC(C)CCNc1ccc(-c2cnc3ccc(NC4CCN(C)CC4)nn23)cn1` [Compound 1], for which the pIC50 on PvCDPK1 is more than 8.00. The mlogD in [1] is on record as 3.4. In the data set with P. falciparum 3D7, the negative logarithm of the EC50 (pEC50) was 6.36. For the same compound, the “% reduction in parasitemia in vivo (po)” value in the data set on P. berghei is 46 (4) %.

`NC1CCC(Nc2ccc3ncc(-c4cnc(Nc5ncccc5F)nc4)n3n2)CC1` (centres unmarked) [Compound 2]: the mlogD in data set [1] is recorded as 0.2. Besides, the “plasma exposure” value in data set [2] is “poor plasma exposure”. Also, the pEC50 in the data set with P. falciparum 3D7 was 7.89.

Regarding `CN1CCC(Nc2ccc3ncc(-c4ccc(Nc5ncc(Cl)cc5F)cc4)n3n2)CC1` [Compound 6], the pIC50 on PvCDPK1 and at PbCDPK1 was more than 8.00 in each case. The “ΔTm PfCDPK1” value on PfCDPK1 is recorded as 22 K. Besides, in [1], the mlogD is reported as 3.7.

Turning to `Cc1ccc(F)c(Nc2ccc(-c3cnc4ccc(NC5CCC(N)CC5)nn34)cc2)n1` (centres unmarked) [Compound 7], the pIC50 on PvCDPK1 and on PbCDPK1 was more than 8.00 throughout. Moreover, the “ΔTm PfCDPK1” value at PfCDPK1 was 23 K. In addition, in data set [1], the mlogD was 2.2. The “PAMPA Papp” value in [3] is 1.8 ×10⁻⁶ cm/s.

As for `CN[C@@H]1C[C@H]2O[C@@](C)([C@@H]1OC)n1c3ccccc3c3c4c(c5c6ccccc6n2c5c31)C(=O)NC4` [Staurosporine], the “difference in potency between wild-type enzyme and T145Q” value at PfCDPK1 T145Q is listed as “no substantial differences”.
